Assay [1] relates to Bean aphid. Kind of assay: Insecticidal activity, bean aphid. It counts as in vivo. The settings on record: application rate of 5 lb./acre.
Assay [2] relates to Leaf Hopper. Kind of assay: Insecticidal activity, leaf hopper. The class given is in vivo. The settings on record: application rate of 5 lb./acre.
In assay [3] the test system is Mite. Nature of the assay: Insecticidal activity, mite. It counts as in vivo. To be noted: application rate of 5 lb./acre.
Assay [4] concerns the target T1, Leucine aminopeptidase (Microsomal) (LAPM) (Sus scrofa, UniProt P15145).
T1 construct: (LAPM) from hog kidney; from tissue; host or cells: hog kidney
T1 sequence (P15145 1-963): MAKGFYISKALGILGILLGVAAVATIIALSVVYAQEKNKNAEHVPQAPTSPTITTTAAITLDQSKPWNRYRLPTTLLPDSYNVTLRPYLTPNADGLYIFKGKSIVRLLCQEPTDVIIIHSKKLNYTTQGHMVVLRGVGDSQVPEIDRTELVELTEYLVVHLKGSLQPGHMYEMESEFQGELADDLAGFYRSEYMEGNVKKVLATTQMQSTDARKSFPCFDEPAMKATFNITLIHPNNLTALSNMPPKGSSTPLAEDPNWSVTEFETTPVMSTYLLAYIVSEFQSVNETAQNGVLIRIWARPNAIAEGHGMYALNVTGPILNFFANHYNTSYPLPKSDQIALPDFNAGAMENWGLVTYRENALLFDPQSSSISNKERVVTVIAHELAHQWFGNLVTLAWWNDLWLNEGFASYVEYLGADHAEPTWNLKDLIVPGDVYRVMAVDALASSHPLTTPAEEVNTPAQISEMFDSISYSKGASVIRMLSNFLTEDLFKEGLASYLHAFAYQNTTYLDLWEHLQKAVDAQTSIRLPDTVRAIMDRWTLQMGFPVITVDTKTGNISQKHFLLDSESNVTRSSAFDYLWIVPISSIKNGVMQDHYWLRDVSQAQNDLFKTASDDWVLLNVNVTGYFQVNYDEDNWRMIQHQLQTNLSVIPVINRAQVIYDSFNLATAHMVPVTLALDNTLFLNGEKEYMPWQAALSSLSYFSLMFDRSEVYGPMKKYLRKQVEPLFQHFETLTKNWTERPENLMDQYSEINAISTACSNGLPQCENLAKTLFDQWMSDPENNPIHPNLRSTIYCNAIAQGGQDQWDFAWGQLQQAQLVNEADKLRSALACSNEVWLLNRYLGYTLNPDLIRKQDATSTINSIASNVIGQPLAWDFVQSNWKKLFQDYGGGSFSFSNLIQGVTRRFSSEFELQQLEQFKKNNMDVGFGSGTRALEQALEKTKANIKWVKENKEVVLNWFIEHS
Kind of assay: IC50 with leucine aminopeptidase (microsomal). To be noted: 72 hours at 0°-5°, pH 7.2, substrate (L)-leucine-β-napthylamide, fluorescence. It counts as biochemical, hog. An excerpt: (§1) An IC50 value represents an approximation of the concentration of enzyme inhibitor required to inhibit enzyme activity by fifty percent. These values represent acceptable approximations of the inhibition constant KI, the dissociation constant in the following equation: [formula] where [E] is the concentration of enzyme, [I] is the concentration of inhibitor and [EI] is the concentration of enzyme/inhibitor complex.
(§2) Determination of IC50 values for LAPC and LAPM was accomplished by spectrophotometrically or fluorometrically following the rate of formation of p-nitroaniline or β-naphthylamine from hydrolysis of (L)-leucine-p-nitroanilide or (L)-leucine-β-napthylamide, respectively, in the presence of active enzyme. IC50 values for HEDA were determined by monitoring, via high pressure liquid chromatography, the formation of destyr-enkephalin from leu-enkephalin.
Assay mixtures were prepared containing 0.613 μg LAPM, 10 μg/mL bovine serum albumin (BSA). 0.1M phosphate buffer, pH 7.2, in a total volume of 2.7 mL. Measured amounts of compounds 5 to be tested for inhibitory activity were added in additional 0.1M phosphate buffer to a total volume of 3 mL. After 72 hours at 0°-5°, 1 mL of the enzyme/inhibitor mixture was treated with 4 μL of 0.2M (L)-leucine-β-napthylamide in dimethylsulfoxide, and the rate of increase of fluorescence at 410 nm, while exciting at 310 nm. was measured. Control experiments were performed identically, except no inhibitor was present. The concentration of the selected compound 5 observed to decrease reaction rates by one-half was used to determine the value of IC50 for each compound. This was accomplished by subtracting one-half the concentration of enzyme present in the sample mixtures (1.6×10^-9 M) from the inhibitor concentration observed to decrease reaction rates by one-half.

Assay [5] addresses T2, Leucine aminopeptidase (cytosolic) (LAPC) (Sus scrofa, UniProt P28839).
T2 construct: (LAPC) from hog kidney; from tissue; host or cells: hog kidney
T2 sequence (P28839 33-519 limits assumed): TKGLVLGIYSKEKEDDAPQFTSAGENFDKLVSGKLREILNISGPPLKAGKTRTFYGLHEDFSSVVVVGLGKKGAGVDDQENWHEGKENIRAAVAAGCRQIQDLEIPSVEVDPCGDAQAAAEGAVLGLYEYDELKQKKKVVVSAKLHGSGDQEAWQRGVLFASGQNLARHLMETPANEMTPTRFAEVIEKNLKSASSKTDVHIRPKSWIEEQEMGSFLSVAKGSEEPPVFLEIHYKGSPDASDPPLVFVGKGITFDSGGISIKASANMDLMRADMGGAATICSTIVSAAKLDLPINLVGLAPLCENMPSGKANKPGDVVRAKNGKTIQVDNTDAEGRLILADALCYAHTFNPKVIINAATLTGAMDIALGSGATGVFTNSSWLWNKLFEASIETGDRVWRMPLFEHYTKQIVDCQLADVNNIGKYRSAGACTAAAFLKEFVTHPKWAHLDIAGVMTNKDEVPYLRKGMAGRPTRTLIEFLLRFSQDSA
Kind of assay: IC50 with leucine aminopeptidase (cytosolic). The class given is biochemical, hog. To be noted: 112 hours at 0°-5°, pH 8.5, substrate (L)-leucine-p-nitroanilide, absorption at 405 nm.
Description: as §1, §2
Assay mixtures were prepared, containing 10×10^-8 M LAPC, 1 mg/mL BSA, 0.025M MgCl2 and 0.01M tris-HCl buffer, pH 8.5, in a total volume of 2.7 mL. Varying amounts of selected compounds 5, dissolved in the same buffer, were added to make a final volume of 3.0 mL. After storage for 112 hours at 0°-5°, 1 mL of this mixture was treated with 25 μL of a 0.1M (L)-leucine-p-nitroanilide in dimethylsulfoxide, and the rate of increase of absorption at 405 nm was measured. IC50 values were calculated as in Example 26, above.

The target in assay [6] is Human enkephalin-degrading aminopeptidase (HEDA). Kind of assay: IC50 with human enkephalin-degrading aminopeptidase. The class given is biochemical. The settings on record: incubated at 37° for 2 hours, pH 7.8, substrate leu-enkephalin, HPLC. An excerpt:
An IC50 value represents an approximation of the concentration of enzyme inhibitor required to inhibit enzyme activity by fifty percent. These values represent acceptable approximations of the inhibition constant KI, the dissociation constant in the following equation: [formula] where [E] is the concentration of enzyme, [I] is the concentration of inhibitor and [EI] is the concentration of enzyme/inhibitor complex. Determination of IC50 values for LAPC and LAPM was accomplished by spectrophotometrically or fluorometrically following the rate of formation of p-nitroaniline or β-naphthylamine from hydrolysis of (L)-leucine-p-nitroanilide or (L)-leucine-β-napthylamide, respectively, in the presence of active enzyme. IC50 values for HEDA were determined by monitoring, via high pressure liquid chromatography, the formation of […]-enkephalin from leu-enkephalin. […] At this point, 15 μL of a 10 mM solution of leu-enkephalin, acetic acid salt in 2 mM phosphate buffer, pH 7.8, were added to each sample mixture. […] Detection was by ultraviolet absorption at 215 nm. A ratio of a peak corresponding to ([…])-enkephalin at about […] and a peak corresponding to leu-enkephalin at about 3.9 min. indicated reaction progress. The rate of increase of this ratio corresponded to the rate of enzyme hydrolysis of substrate leu-enkephalin.

In assay [7] the test system is Bollworm. Kind of assay: Insecticidal activity, bollworm. The class given is in vivo. The settings on record: application rate of 5 lb./acre.
Assay [8] has as its target α-chymotrypsin (Bos taurus, UniProt P00766). The settings on record: Matteson et al., J. Am. Chem. Soc. 103:5241 (1981); cited from earlier work.
Assay [9] concerns subtilisin. The settings on record: Philipp, et al., FEBS Letters 133:36 (1971); cited from earlier work.
Assay [10] relates to Ant. Nature of the assay: Insecticidal activity, ant feeding. The class given is in vivo. To be noted: application rate of 5 lb./acre.

Counter-ions that a name gives are not always drawn.

Consider `CC1(C)OB(C(Cl)Cc2ccccc2)OC1(C)C` (stereo not drawn) [3 (R=CHC6 H5), 2-(1-chloro-2-phenylethyl)-4,4,5,5-tetramethyl-1,3,2-dioxaborolane], for which the “Bean aphid, % control” value in assay [1] is recorded as 48%.
Still for that read-out and setting: the figure for `CCC(C)C(Cl)B1OC(C)(C)C(C)(C)O1` (stereo not drawn) [3 (R=CH(CH3)C2 H5), 2-(1-chloro-2-methylbutyl)-4,4,5,5-tetramethyl-1,3,2-dioxaborolane] is 39%.
`CC(C)CB1OC(C)(C)C(C)(C)O1` [2 (R=CH3 CH(CH3)2), 4,4,5,5-tetramethyl-2-(2-methylpropyl)-1,3,2-dioxaborolane]: in assay [2], the “Leaf Hopper, % control” value was 50%.
`CC1(C)OB(Cc2ccccc2)OC1(C)C` [2 (R=CHC6 H5), 4,4,5,5-tetramethyl-2-(phenylmethyl)-1,3,2-dioxaborolane]: in assay [3], the “Mite, % control” value was determined as 70%.
The same measure, in the same setting: the figure for `CC(C)CC(Cl)B1OC(C)(C)C(C)(C)O1` (stereo not drawn) [3 (R=CH3 CH(CH3)2), 2-(1-chloro-3-methylbutyl)-4,4,5,5-tetramethyl-1,3,2-dioxaborolane] is 64%.
Turning to `CC(C)CC(N)B1OC(C)(C)C(C)(C)O1` (stereo not drawn) [5 (R=CH2 CH(CH3)2), 3-methyl-1-(4,4,5,5-tetramethyl-1,3,2-dioxaborolane-2-yl)-1-butamine, trifluoroacetic acid salt], the values for the IC50 in [4], in [5] and in assay [6] were 0.0012 µM, 0.15 µM and 0.0074 µM, respectively.
On to `CCC(C)B1OC(C)(C)C(C)(C)O1` (stereo not drawn) [2 (R=CH(CH3)C2 H5), 2-(1-methylpropyl)-4,4,5,5-tetramethyl-1,3,2-dioxaborolane], for which the “Bollworm, % control” value in [7] is listed as 20%.
Regarding `CC1(C)OB(C(N)Cc2ccccc2)OC1(C)C` (stereo not drawn) [5 (R=CH2 C6 H5), 4,4,5,5-tetramethyl-α-(phenylmethyl)-1,3,2-dioxoborolane-2-methanamine, trifluoroacetic acid salt], the IC50 (commonly the concentration that gives 50% inhibition) in [4] is 0.0002 µM; in assay [5], 0.01 µM; in assay [6], 0.0052 µM.
Taken in the same sequence, the figures for `CCC(C)C(N)B1OC(C)(C)C(C)(C)O1` (stereo not drawn) [5 (R=CH(CH3)C2 H5), 4,4,5,5-tetramethyl-α-(1-methylpropyl)-1,3,2-dioxaborolane-2-methanamine, trifluoroacetic acid salt] were 0.0022 µM, 0.03 µM and 0.041 µM.
Taken in the same sequence, the figures for `CC(N)B1OC(C)(C)C(C)(C)O1` (stereo not drawn) [5 (R=CH3), α,4,4,5,5,pentamethyl-1,3,2-dioxoborolane-2-methanamine, trifluoroacetic acid salt] were 0.0064 µM, 30 µM and 0.071 µM.
For `CC(C)C(N)B1OC(C)(C)C(C)(C)O1` (stereo not drawn) [5 (R=CH(CH3)2), 4,4,5,5-tetramethyl-α-(1-methylethyl)-1,3,2-dioxaborolane-2-methanamine, trifluoroacetic acid salt] the same measures were 0.00215 µM, 0.07 µM and 0.042 µM.
For `CC(=O)NC(Cc1ccccc1)B(O)O` (stereo not drawn) [IV], in assay [8], the “inhibition of α-chymotrypsin” value was “observed to inhibit”. The inhibition of subtilisin result in assay [9] is “inhibited”.
`CB1OC(C)(C)C(C)(C)O1` [2 (R=CH3), 2,4,4,5,5-pentamethyl-1,3,2-dioxaborolane]: the “Ant Feeding, % control” value in assay [10] came to 31%.

(Values after patent US4537773A, “α-Aminoboronic acid derivatives” (E. I. Du Pont de Nemours and Company, priority 1983, dated 1985).)
